Molecular target: T1, RBM45-NR0B1 interaction (Homo sapiens, UniProt P51843)
T1 construct: endogenous in cells; host or cells: H460 cells (also H2122 and A549) stably expressing FLAG-RBM45 by lentiviral transduction (FLAG-pLJM1)
T1 sequence (P51843 1-470): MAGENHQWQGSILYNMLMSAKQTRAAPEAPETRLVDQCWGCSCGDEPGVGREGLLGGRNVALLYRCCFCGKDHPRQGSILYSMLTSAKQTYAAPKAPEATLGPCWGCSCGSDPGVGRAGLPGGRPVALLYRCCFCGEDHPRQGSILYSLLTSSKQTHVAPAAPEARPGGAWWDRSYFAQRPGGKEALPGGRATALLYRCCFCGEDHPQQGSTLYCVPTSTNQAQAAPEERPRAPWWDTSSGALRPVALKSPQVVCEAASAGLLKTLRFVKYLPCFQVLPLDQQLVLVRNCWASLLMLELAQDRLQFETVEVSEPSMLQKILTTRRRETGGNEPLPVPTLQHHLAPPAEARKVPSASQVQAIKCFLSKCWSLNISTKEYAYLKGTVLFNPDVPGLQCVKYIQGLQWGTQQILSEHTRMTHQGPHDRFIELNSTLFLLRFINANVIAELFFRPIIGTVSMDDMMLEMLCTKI
Experiment: RBM45-NR0B1 interaction in NSCLC cells stably expressing FLAG-RBM45 (FLAG immunoprecipitation)
Assay type: cell-based
Conditions: 3 h; for blockade of the RBM45-NR0B1 interaction: H460 cells; for blockade of NR0B1 binding to FLAG-RBM45: H2122 and A549 cells
Protocol: FIG. 6A-FIG. 6F show characterization of NR0B1 ligands in KEAP1-mutant NSCLC cells. […] Dashed lines designate R values≥3 (DMSO/compound), which was used as a cutoff to define cysteines liganded by the indicated compounds. Insets show MS1 profiles for C274 in NR0B1 for DMSO (blue) versus compound (red) treatment. Data are from individual experiments representative of at least three biological replicates. […] (See also Table 5). […] H460 cells stably expressing FLAG-RBM45 were incubated with indicated compounds for 3 h, whereupon FLAG immunoprecipitates were performed and analyzed by immunoblotting. […] Experiments performed as described in (C). […] Dashed line designates R values (light/heavy) of <8, which was used as a cutoff for fast-turnover proteins. […] Charts comparing fraction of NRF2-regulated genes (as determined by RNAseq) for which the corresponding proteins are designated as fast or slow turnover (as determined in G) further divided into groups showing reduced expression (left) or not (right) on day 1 following NRF2 knockdown (as determined by isoTOP-ABPP).
FIG. 12A-FIG. 12G show characterization of NR0B1 ligands in Keap1-mutant NSCLC cells. […] Data obtained from isoTOP-ABPP experiments of H460 cells treated with compound (red traces) or DMSO (blue traces) for 3 h. […] Shown are MS1 profiles for quantified cysteines in NR0B1 following treatment with BPK-29 (40 μM, red; top) BPK-26 (40 μM, red; bottom) or DMSO (blue) for 3 h. […] KEAP1-null HEK293T cells stably expressing FLAG-RBM45 or FLAG-SNW1 were incubated with the indicated compounds for 3 h, after which FLAG immunoprecipitates were prepared from cell lysates. Immunoprecipitates and lysates were analyzed by immunoblotting for the indicated proteins. Dashed lines represent a lane that was cropped from this immunoblot. […] H2122 or A549 cells stably expressing FLAG-RBM45 were incubated with the indicated compounds for 3 h, after which FLAG immunoprecipitates were prepared. Immunoprecipitates and lysates were analyzed as described in (E). […] H2122 cells stably expressing FLAG-RBM45 or A549 cells stably expressing FLAG-SNW1 were incubated with indicated compounds for 3 h and FLAG immunoprecipitates were prepared and analyzed as described in (E).
Confluent 10 cm plates of indicated cell lines were rinsed once with warm PBS and incubated in serum/dye-free RPMI with indicated compounds or vehicle for 3 h at 37° C. Cells were washed once ice-cold PBS and snap frozen.
Cells were rinsed once with ice-cold PBS, and lysed by sonication in Triton IP buffer. Lysates were clarified by centrifugation at 16,000×g for 10 min. […] Proteins were resolved by SDS-PAGE, analyzed by immunoblotting and relative band intensities were quantified using ImageJ software.

Row | SMILES | blockade of the RBM45-NR0B1 interaction | blockade of NR0B1 binding to FLAG-RBM45
1 | O=C(CCl)N(Cc1cccc(Cl)c1F)c1ccc(Cl)nc1 [BPK-26, 2-chloro-N-(3-chloro-2-fluorobenzyl)-N-(6-chloropyridin-3-yl)acetamide] | block | block
2 | O=C(c1ccc(N2CCOCC2)cc1)N1CCCC(N(Cc2ccccc2)C(=O)CCl)CC1 (stereo not shown) [BPK-29, N-benzyl-2-chloro-N-(1-(4-morpholinobenzoyl)azepan-4-yl)acetamide] | block | block

From US20200278355A1, “CONJUGATED PROTEINS AND USES THEREOF” (THE SCRIPPS RESEARCH INSTITUTE, priority 2017, published 2020)
